Measured values as given in patent publication US20110054247A1, “METHODS FOR CLONING FERRETS AND TRANSGENIC FERRET MODELS FOR DISEASES” (UNIVERSITY OF IOWA RESEARCH FOUNDATION, priority 2009, published 2011).

Assays:
CFTR-/- kits = test: Oral UDCA therapy of CFTR-/- kits (neonatal clinical care, blood chemistries); type: in vivo, ferret; conditions: Golytely and antibiotics
Protocol: Neonatal clinical care of CFTR^−/− kits. Two treatment protocols were developed to enhance post-natal survival and reduce the risk of intestinal obstruction caused by MI. Both protocols included administering metronidazole (5 mg/kg in 100 uL of dextrose saline, s.c.) 4× daily beginning at the time of birth, and starving the animals for the first 3 hours after birth and then administering a 150-200 μL Golytely® gavage (Braintree Laboratories Inc.) using a fire polished microloader pipette tip (Eppendorf Inc.) (FIG. 27 for example of gavage tube components). The gavage was repeated every 6 hours up to three times, until meconium was passed. […] When CFTR^−/− kits were weaned at 5 weeks of age, they were fed a slurry of Elecare hydrated solid chow (Marshall Farms) 2× daily, mixed with 1 lipase Unit per 10 gram body weight of Viokase-V (the amount of food eaten with each feeding was recorded for these calculations).
Blood chemistries. […] Mammalian Liver Profile rotors from Abaxis were used, and assessed plasma levels of: alkaline phosphatase (AP), alanine aminotransferase (ALT), bile acids (BA), total bilirubin (TBiI), total cholesterol (CHOL), gamma glutamyl transferase (GGT), and blood urea nitrogen (BUN). […]
For these reasons, it was determined whether oral UDCA therapy of CFTR^−/− kits might normalize liver function and improve nutrition. […]

[1] = system: submucosal glands of CFTR-/- tracheas; test: Functional measurement of gland secretions in tracheal xenografts; design: species or system ferret; conditions: 30 minute stimulation
Protocol: Functional measurement of gland secretions in tracheal xenografts. Rates of mucous secretion from single submucosal glands were determined on excised CFTR^+/+, CFTR^+/−, and CFTR^−/− tracheal xenografts, as previously described in Joo et al. (2001), with modification to optimize xenograft viability. Xenografts were harvested and placed in minimal essential medium (MEM) with antibiotics, and shipped overnight at 4° C. from the University of Iowa to Stanford University. Tracheal xenografts were open along the posterior trachealis muscle, and dissected tracheal segments were mounted mucosal-side-up in a chamber without removing the cartilage at 4° C. […] Digital images of the spherical mucous bubbles under mineral oil were obtained at 5 minute intervals, based on which the secretory rates for individual glands was calculated using ImageJ software (NIH, MD). […] To confirm that differences in glandular secretory rates between CF and non-CF xenografts were not due to differences in gland size, we performed morphometric analysis on the samples analyzed. […] The unit length of the surface airway basal lamina and the glandular area were measured for each section using Metamorph software. […] On average about 75 photomicrographs were evaluated for each xenograft sample (N=5 for non-CF and N=6 for CF).

## C[C@H](CCC(=O)O)[C@H]1CC[C@H]2[C@@H]3[C@@H](O)C[C@@H]4C[C@H](O)CC[C@]4(C)[C@H]3CC[C@]12C [UDCA, ursodeoxycholic acid]
CFTR-/- kits; 4 of 20 CFTR-/- kits treated with UDCA
  survival of CFTR-/- kits that did not die of MI: 5 to 9 days
CFTR-/- kits; among 20 CFTR-/- kits treated with UDCA
  number of kits that died of MI: 16

## C[N+](C)(C)CCOC(N)=O [carbachol]
[1]; secretion in response to 1 μM carbachol
  reduction of fluid secretion from submucosal glands, CFTR-/- versus non-CF tracheas: reduced by half

## C=C[C@@]1(C)CC(=O)[C@]2(O)[C@@]3(C)[C@@H](O)CCC(C)(C)[C@@H]3[C@H](O)[C@H](OC(C)=O)[C@@]2(C)O1 [forskolin]
[1]; secretion in response to 3 μM forskolin
  reduction of fluid secretion from submucosal glands, CFTR-/- versus non-CF tracheas: 7.4 fold
